Series [1] in a line: change in body weight during dermal application. Particulars: after 4 weeks of application, 3 mg/mouse/day dermal.
Protocol: Experiments were carried out using 24 male C57BL/6N mice aged 6 weeks, which were purchased from OrientBio Inc., acclimated for two weeks in a laboratory environment, and then divided into a total of three groups (n=5) of a negative control (CON), a positive control (MXD) and a nonanal group (NN). An animal laboratory was maintained at 21±2.0° C., a relative humidity of 50±5%, on a 12-hour day/night cycle. During the experimental period, a general solid feed (chow) and water were freely offered to the mice.
To investigate a hair development effect, an 8-week-old mouse with telogen-phase hair, in which a dorsal skin color was pink, were used. The dorsal hair of the mouse was removed using a clipper for a mouse, and the sample was applied daily at 4 p.m. for 4 weeks. The test material nonanal (3 mg/mouse/day) and the control drug Minoxidil (3 mg/mouse/day) were applied after being dissolved in the vehicle (ethanol:water:propylene glycol=5:3:2), and only the vehicle was applied to the negative control group.
A body weight of the experimental animal from immediately before the application of an agent for hair development to the end of the application was measured weekly.
Series [2] deals with hair follicles. Nature of the series: histological analysis of dorsal skin. The note with it: 4 weeks of application. Type of series: in vivo, C57BL/6N mice. The source says:
The experimental animals were sacrificed after four weeks of the application, and a dorsal skin tissue specimen was extracted from the test material-applied region using scissors and forceps, and then fixed with formalin. By steps, the resulting specimen was dehydrated with an alcohol and xylene, embedded in paraffin, sliced into a 5-μm fragment using a microtome, and treated again with an alcohol and xylene to remove paraffin. After hematoxylin-eosin staining, a histological change in hair follicle tissue was observed using an optical microscope. The hair development cycle was evaluated by a pathologist, the number and diameter of hair follicles were measured using an optical microscope, and the number of hair follicles in the test group was measured under a 40× optical microscope.

For series [3] the following is noted: clinical studies, 1% solution; cited from earlier work.
Series [4] has as its system β-catenin. As to the kind of experiment: Western blot of dorsal skin tissue. The class given is in vivo, mouse. The note with it: Western blotting. The method, then: A predetermined amount of skin tissue was homogenized with liquid nitrogen and a lysis buffer using a mortar and centrifuged at 13,000×g and 4° C. for 20 minutes to obtain an intermediate layer, and then a protein was quantified by the Bradford method. 50 μg of the protein was subjected to electrophoresis on an SDS polyacrylamide gel and electroblotted onto a PVDF hyperfilm, and then reacted with a β-catenin or β-actin antibody (Cell Signaling Technology, Danvers, Mass., USA). A signal of each protein was visualized using a chemiluminescent detection system (Amersham), and then a band thickness was quantified using the Quantity One Analysis Software (Bo-Rad Laboratories).

Series [5] has as its system rats. Particulars: oral; cited from earlier work.
Series [6] deals with rabbits. Particulars: transdermal; cited from earlier work.
Series [7] relates to β-catenin. Nature of the series: q-PCR gene expression in dorsal skin tissue. Type of series: in vivo, mouse. Particulars: 4 weeks. How it is done:
(§1) To quantify total RNA in skin tissue of the experimental animals, 1 mL of a TRIzol solution was added to 50 to 100 mg of skin tissue and homogenized, and then centrifuged at 4° C. and 12,000×g for 10 minutes. The supernatant was transferred to a new tube, 200 μl of chloroform was added, and then the resulting mixture was vigorously shaken. This process was repeated twice, then the supernatant was transferred to a new tube, in which isopropanol and the supernatant were added in a ratio of 1:1. The resulting mixture was shaken 10 times, and maintained at room temperature for 10 minutes and centrifuged at 12,000×g and 4° C. for 10 minutes to remove the supernatant. Then, 1 ml of 70% ethanol was added to the remaining pellet and centrifuged at 7,500×g and 4° C. for 5 minutes. Following the removal of ethanol, a tube containing the RNA pellet was dried at room temperature for 5 minutes, and the RNA pellet was dissolved in nuclease-free water. Concentrations of the extracted RNA specimens at 260 nm and 280 nm wavelengths were measured using a UV/VIS spectrophotometer (Beckman Coulter, DU730), and agarose gel electrophoresis was performed to confirm the integrity of the RNA specimens.
(§2) Following the isolation of RNA, cDNA was synthesized by performing reverse transcription using an oligo dT primer and a Superscript reverse transcriptase (Gibco BRL, Gaithersburg, Md., USA). To measure expression levels of genes, real-time q-PCR was performed using SYBR Green (Bio-Rad, Hercules, Calif., USA), and the instrument used was a CFX Connect™ Real-Time PCR Detection System (Bio-Rad).
(§3) For real time PCR, 2 μL of cDNA, 10 μL of a 2× SYBR mix, 1 μL each of a forward primer and a reverse primer (10 to 20 pmol/μL) were added, and then, H2O was filled to the final volume 20 μL. A PCR extension step was performed as follows, and 35 extension cycles was performed. The extension was performed at 95° C. for 1 minute for hot start, at 95° C. for 15 seconds for denaturation in the extension step, at 55° C. for 30 seconds for annealing, and at 72° C. for 1 minute for extension. After all cycles were completed, to identify primer specificity, melting curve analysis was performed.
(§4) Change in expression of a β-catenin signaling material known as a mechanism for promoting hair development in skin tissue was analyzed by q-PCR analysis on dorsal skin tissue of a mouse to which the test material was applied for 4 weeks.

Series [8] concerns T-Cell factor (TCF). Nature of the series: q-PCR gene expression in dorsal skin tissue. Type of series: in vivo, mouse. The note with it: 4 weeks. How it is done:
as §1, §2, §3, §4

Series [9] relates to Lymphoid enhancer factor (LEF). Nature of the series: q-PCR gene expression in dorsal skin tissue. Type of series: in vivo, mouse. Particulars: 4 weeks. How it is done: as §1, §2, §3, §4
The subject of series [10] is Cyclin D1. Nature of the series: q-PCR gene expression in dorsal skin tissue. Type of series: in vivo, mouse. Particulars: 4 weeks. The method, then: as §1, §2, §3, §4
In series [11] the test system is telogen-phase hair. Nature of the series: hair development state and hair length in shaved mice. The class given is in vivo, C57BL/6N mice. The note with it: dermal 3 mg/mouse/day. How it is done: To visually examine a hair growth state, 1, 2, 3, and 4 weeks after the application started, the experimental animals were slightly anesthetized with ether, and a dorsal region was photographed. To evaluate the degree of hair growth, the hair length was measured using a ruler.

Series [12] deals with diarrhea-induced mice. Particulars: cited from earlier work.

The text below walks through data of patent US20190151256A1, “Composition Including Nonanal As Active Ingredient For Preventing Hair Loss Or Stimulating Hair Development” (Industry-Academic Cooperation Foundation, Yonsei University, priority 2017, published 2019).

Each structure is given as a SMILES string.

On to `Nc1cc(N2CCCCC2)nc(N)[n+]1[O-]` [Minoxidil], for which, in series [1], the “body weight, difference between test groups” value was “no significant difference”.
`CCCCCCCCC=O` [nonanal]: in series [2], the “increase in number of hair follicles compared with negative control” value turned out to be 166% and the “microscopy of hair follicles” value was “hair follicles elongated to come out of the skin”. Also, the “increase in hair follicle diameter compared with negative control” value in series [2] (image analysis) amounted to 38%. Also, the “dermal irritation or sensitization reaction” value in series [3] is given as “no dermal irritation or sensitization reaction”. In addition, in series [4], the “increase in β-catenin protein expression compared with negative control” value stood at 71% and the “β-catenin protein expression effect compared with Minoxidil group” value is given as “superior to that of the Minoxidil group”. The “lethal dose 50% (LD50 value)” value in [5] is on record as 5,000 mg/kg. For the same molecule, in series [6], the LD50 value is 5,000 mg/kg. Further, the “β-catenin gene expression compared with negative control” value in [7] was “significantly increased”. Moreover, the “TCF gene expression compared with negative control” value in series [8] is “significantly increased”. The “LEF gene expression compared with negative control” value in series [9] is recorded as “significantly increased”. Besides, in series [10], the “cyclin D1 gene expression compared with negative control” value was “significantly increased”. Also, the “hair length at three weeks” value in series [11] (3 weeks) is “significantly increased”. The “visual hair growth after 4 weeks” value in series [11] (4 weeks, vs negative control) is “hair grew more evenly and fully in more individuals than that in the negative control group”. Moreover, the “increase in hair length compared with negative control” value in series [11] (after four weeks, p<0.001) is listed as 434%. Also, in [11] (weekly photographs), the “visual hair growth (onset)” value is “from three weeks of the application, hair began to grow”. Also, the inhibition of diarrhea entry in series [12] was “significant effect in inhibition of diarrhea”.
